Assay results taken from patent US9084423B2, “Inhibition of bacterial biofilms with imidazole derivatives” (North Carolina State University, priority 2007, dated 2015).

Columns and labels:
[1] = system: planktonic P. aeruginosa PA14; assay: Planktonic growth (growth curves, colony counts), PA14; type: cell-based, Pseudomonas aeruginosa; details: growth curves and/or colony counts, presence vs absence of compound, at IC50 or as stated
[2] = system: Acinetobacter Baumannii (ATCC 19606); assay: Static biofilm inhibition assay (crystal violet), A. baumannii; type: cell-based; details: ATCC19606, inhibition of biofilm formation, 24 hours, read-out: IC50 value for inhibition against A. baumannii
Procedure: (§1) An overnight culture of the bacterial strain being screened against was subcultured at an OD600 of 0.1 into the media used (listed below with strain) and then pipetted into test tubes along with a predetermined concentration of our compound of interest. Test tubes were then poured into tilted Petri dishes and 100 μL of media, strain and compound were then transferred into 96-well PVC microtiter plates. These microtiter plates were then covered, wrapped in Saran™ Wrap polyethylene film (S.C. Johnson, Racine, Wis.) and allowed to incubate at 37° C. for 24 hours. After that time, the medium was discarded and the plates were thoroughly washed with water. The remaining biofilm that was formed during incubation was stained with 100 μL of a 0.1% crystal violet solution and allowed to incubate at room temperature for 30 minutes. After 30 minutes, the crystal violet was discarded and washed thoroughly again with water. […] The quantification of biofilm formation was accomplished by transferring 125 μL of the ethanol solution into a polystyrene microtiter dish, which was read by spectrophotometry (A540). After the background has been subtracted from each row, a percent inhibition can be calculated by dividing the amount of crystal violet in wells that contained compound by the amount of crystal violet in wells that contained bacteria only. […]

[3] = system: existing biofilms of P. aeruginosa; assay: Biofilm dispersion, P. aeruginosa (Example 6); type: cell-based, Pseudomonas aeruginosa; details: range of concentrations, FIG. 21
Procedure: (§2) From a clinical perspective, the ability to disperse an established biofilm can be an important consideration, because a physician is typically faced with treating an established or chronic biofilm infection. DHS was assessed for its ability to disperse existing biofilms of P. aeruginosa, A. baumannii, and B. bronchiseptica. Each bacterial strain was allowed to form biofilms for 24 hours in the absence of compound. At the end of 24 hours, the media and planktonic bacteria were removed and the remaining biofilm was treated either with media alone or media containing DHS.

[4] = system: PDO300, mucoid strain of P. aeruginosa; assay: Static biofilm inhibition assay (crystal violet), PDO300; type: cell-based; details: Pseudomonas aeruginosa, 24 h, read-out: IC50 against PDO300
Procedure: PDO300 was employed to assay if TAGE would inhibit the formation of mucoid biofilms. PDO300 is a well-characterized mucoid strain of P. aeruginosa that is genotypically identical to PAO1 except for the mucA mutation that converts the bacterium to the mucoid phenotype (Mathee et al., Microbiology, 1999, 145, 1349), PDO300 biofilms were allowed to develop in a 96-well plate in the absence or presence of TAGE. After 24 hours, the media and planktonic bacteria were removed, the wells were washed vigorously, and crystal violet was added. Crystal violet stains the bacterial biofilm that forms on the inside wall of the well at the air/liquid interface, which, following ethanol solubilization, can be quantitated by spectrophotometry (A540) (O'Toole et al., Mol. Microbiol., 1998, 30, 295).
An overnight culture of the bacterial strain being screened against was subcultured at an OD600 of 0.1 into the media used (listed below with strain) and then pipetted into test tubes along with a predetermined concentration of our compound of interest. Test tubes were then poured into tilted Petri dishes and 100 μL of media, strain and compound were then transferred into 96-well PVC microtiter plates. […] The quantification of biofilm formation was accomplished by transferring 125 μL of the ethanol solution into a polystyrene microtiter dish, which was read by spectrophotometry (A540). […]

[5] = system: P. aeruginosa PA14; assay: Static biofilm inhibition assay (crystal violet), PA14; type: cell-based, Pseudomonas aeruginosa
Procedure: (§3) An overnight culture of the bacterial strain being screened against was subcultured at an OD600 of 0.1 into the media used (listed below with strain) and then pipetted into test tubes along with a predetermined concentration of our compound of interest. Test tubes were then poured into tilted Petri dishes and 100 μL of media, strain and compound were then transferred into 96-well PVC microtiter plates. These microtiter plates were then covered, wrapped in Saran™ Wrap polyethylene film (S.C. Johnson, Racine, Wis.) and allowed to incubate at 37° C. for 24 hours. After that time, the medium was discarded and the plates were thoroughly washed with water. The remaining biofilm that was formed during incubation was stained with 100 μL of a 0.1% crystal violet solution and allowed to incubate at room temperature for 30 minutes. After 30 minutes, the crystal violet was discarded and washed thoroughly again with water. The remaining crystal violet that had stained the biofilm in the inside walls of the 96-well PVC plates was solubilized with 200 μL of 95% ethanol. The quantification of biofilm formation was accomplished by transferring 125 μL of the ethanol solution into a polystyrene microtiter dish, which was read by spectrophotometry (A540). After the background has been subtracted from each row, a percent inhibition can be calculated by dividing the amount of crystal violet in wells that contained compound by the amount of crystal violet in wells that contained bacteria only. Each concentration reported during the course of this study was repeated two to five times with each of those biofilm inhibition assays being done in 6 replicates each.
(§4) An overnight culture of the wild type strain was subcultured at an OD600 of 0.10 into LBNS along with a predetermined concentration of the small molecule to be tested for biofilm inhibition. Samples were then aliquoted (100 μL) into the wells of a 96-well PVC microtiter plate. The microtiter dishes were covered and sealed before incubation under stationary conditions at 37° C. for 24 hours. After that time, the medium was discarded and the plates thoroughly washed with water. The wells were then inoculated with a 0.1% aqueous solution of crystal violet (100 μL) and allowed to stand at ambient temperature for 30 minutes. Following another thorough washing with water the remaining stain was solubilized with 200 μL of 95% ethanol. Biofilm inhibition was quantitated by measuring the OD540 for each well by transferring 125 μL of the ethanol solution into a fresh polystyrene microtiter dish for analysis.
(§5) To examine each compound's ability to inhibit the formation of Pseudomonas aeruginosa biofilms, PAO1 and PA14 were employed as the target bacterial strains using a crystal violet reporter assay. G. A. O'Toole, R. Kolter, Mol. Microbiol. 1998, 28, 449. All compounds were initially screened at 500 μM for anti-biofilm activity.
as §4, with “for 24 hours, After that” for “for 24 hours. After that”, “violet (100 pt) and allowed” for “violet (100 μL) and allowed”

[6] = system: P. aeruginosa strain PAO1; assay: Static biofilm inhibition assay (crystal violet), PAO1; type: cell-based, Pseudomonas aeruginosa
Procedure: Each compound was assayed for the ability to inhibit the formation of P. aeruginosa biofilms. […] We employed a standard crystal violet reporter assay to assess for the formation of biofilms. Briefly, P. aeruginosa strain PAO1 was allowed to form biofilms in a multi-well plate in the absence or presence of our compounds. Planktonic (or free growing) bacteria were then removed, wells washed vigorously, and crystal violet added. Crystal violet stains the remaining bacteria which, following ethanol solubilization, can be quantitated by spectrophotometry (A540).
as §3, §4, §5
An overnight culture of the wild type strain was subcultured at an OD600 of 0.10 into LBNS along with a predetermined concentration of the small molecule to be tested for biofilm inhibition. Samples were then aliquoted (100 μL) into the wells of a 96-well PVC microtiter plate. The microtiter dishes were covered and sealed before incubation under stationary conditions at 37° C. for 24 hours, After that time, the medium was discarded and the plates thoroughly washed with water. […]

[7] = system: planktonic P. aeruginosa PAO1; assay: Planktonic growth (growth curves, colony counts), PAO1; type: cell-based, Pseudomonas aeruginosa; details: growth curves and/or colony counts, presence vs absence of compound, at IC50 or as stated
Text: To answer the question of whether the compounds were antibiotics or true inhibitors of biofilm formation, we tested the ability of both compounds to inhibit growth of planktonic P. aeruginosa. Growth was quantitated by measuring optical density at 600 nm. […]

[8] = system: B. bronchiseptica biofilms (strain Rb50); assay: Static biofilm inhibition assay (crystal violet), RB50; type: cell-based; details: Bordetella bronchiseptica, inhibition of biofilm formation, 24 hours
Procedure: as §1

[9] = system: existing biofilms of B. bronchiseptica; assay: Biofilm dispersion, B. bronchiseptica; type: cell-based, Bordetella bronchiseptica; details: range of concentrations, FIG. 21
Procedure: as §2

[10] = system: PDO300; assay: Planktonic growth (growth curves, colony counts), PDO300; type: cell-based, Pseudomonas aeruginosa; details: growth curves and/or colony counts
[11] = system: A. baumannii biofilms; assay: Biofilm dispersion, A. baumannii; type: cell-based, Acinetobacter baumannii; details: range of concentrations, FIG. 21
Procedure: Finally, each of the TAGE derivatives were assayed for their ability to disperse pre-formed biofilms. […] While not wishing to be bound by any particular theory, it is hypothesized that the failure of these derivatives to effectively disperse biofilms, in contrast to TAGE, might be due to impeded diffusion through the biofilm matrix.
as §2

[12] = system: A. baumannii; assay: Planktonic growth (growth curves, colony counts), A. baumannii; type: cell-based, Acinetobacter baumannii; details: growth curves and/or colony counts
Procedure: Screens of the three compounds were performed against A. baumannii and B. bronchiseptica.

[13] = listed as DHS 23, hydrochloride
[14] = listed as DHS (7), hydrochloride

Cl.Cn1c(C(=O)NCCCc2c[nH]c(N)n2)cc(Br)c1Br [Compound 23, 4,5-dibromo-1-methyl-pyrrole-2-carboxylic acid [3-(2-amino-1H-imidazol-4-yl)-propyl]-amide hydrochloride]
microbicidal effect on PA14 planktonic growth (in words) [1, 13]: no reduction | microbicidal effect on PA14 planktonic growth (in words) [1, 14]: not due to a bactericidal effect | IC50 [2]: 110 µM | dispersion of existing P. aeruginosa biofilms (in words) [3]: able to successfully disperse | IC50 [4]: 115 µM | % Biofilm Inhibition at 500 μM vs PA14 ([5]; 500 μM, hydrochloride): >95% | inhibition at 500 µM ([5]; Pseudomonas aeruginosa, PA14, 24 h): > 95% | IC50 ([5]; Pseudomonas aeruginosa, PA14, inhibition of biofilm formation, crystal violet, 24 hours): 111 ± 8 µM | % Biofilm Inhibition at 500 μM vs PAO1 ([6]; 500 μM, hydrochloride): >95% | inhibition at 500 µM ([6]; Pseudomonas aeruginosa, PAO1): > 95% | IC50 ([6]; Pseudomonas aeruginosa, PAO1, inhibition of biofilm formation, crystal violet, 24 hours): 51 ± 9 µM | fold more active than both TAGE and CAGE ([6]; from IC50 values against PAO1 and PA14): approximately 2 fold | microbicidal effect on PAO1 planktonic growth (in words) [7, 13]: no reduction | microbicidal effect on PAO1 planktonic growth (in words) [7, 14]: not due to a bactericidal effect | IC50 [8]: 238 µM | dispersion of existing B. bronchiseptica biofilms (in words) [9]: able to successfully disperse | bactericidal activity against PDO300 (in words) [10]: lacked significant bactericidal activity | dispersion of existing A. baumannii biofilms (in words) [11]: able to successfully disperse | microbicidal effect on A. baumannii planktonic growth (in words) [12]: no microbicidal effects
